Results on 13 molecules are retold here after patent publication US20120245155A1, “FUSED HETEROCYCLIC COMPOUND HAVING AMINO GROUP” (Shionogi & Co., Ltd., priority 2009, published 2012).

Molecules are shown by their SMILES. pIC50: −log10 of the molar value.

One data set has as its target T1, Recombinant human BACE1 (Homo sapiens, UniProt P56817).
T1 construct: purchased R&D Systems
Description: Assay of BACE 1 inhibiting activity. Type of data set: biochemical. The note with it: Recombinant human BACE1 7.4 nmol/L, substrate peptide 18 nmol/L, pH 5.0, 30° C., 3 hours; read-out: 50% inhibitory concentration against the enzymatic activity (IC50). The method, then:
48.5 μL of substrate peptide solution (Biotin-XSEVNLDAEFRHDSGC-Eu: X═ε-amino-n-capronic acid, Eu=Europium cryptate) was added to each well of 96-hole half-area plate (a black plate: Costar), and after addition of 0.5 μl of the test compound (dissolved in […]) and 1 μl of Recombinant human BACE1 (R&D Systems), the reaction mixture was incubated at 30° C. for 3 hours. The substrate peptide was synthesized by reacting Cryptate TBPCOOH mono SMP (CIS bio international) with Biotin-XSEVNLDAEFRHDSGC (Peptide Institute, Inc.). The final concentrations of the substrate peptide and Recombinant human BACE1 were adjusted to 18 nmol/L and 7.4 nmol/L, respectively, and the reaction was performed in sodium acetate buffer (50 mmol/L sodium acetate, pH 5.0, 0.008% Triton X-100).
After the incubation for reaction, 50 μl of 8.0 μg/ml Streptavidin-XL665 (CIS bio international) dissolved in phosphate buffer (150 mmol/L K2 HPO4—KH2PO4, pH 7.0, 0.008% Triton X-100, 0.8 mol/L KF) was added to each well and left stand at 30° C. for an hour. After then, fluorescence intensity was measured (excitation wavelength: 320 nm, measuring wavelength: 620 nm and 665 nm) using Wallac 1420 multilabel counter (Perkin Elmer life sciences). Enzymatic activity was determined from counting ratio of each wavelength (10,000× Count 665/Count 620) and 50% inhibitory concentration against the enzymatic activity was calculated.

The subject of data set [1] is Neuroblastoma SH—SY5Y cells (SH/APPwt) with human wild-type β-APP excessively expressed. Description: Measurement of β-amyloid (Aβ) production inhibitory effect in cell. Format: cell-based. The settings on record: 24 hours incubation, Amyloid β 1-40 by HTRF, read-out: amount needed to inhibit Aβ production by 50% (IC50). The procedure:
Neuroblastoma SH—SY5Y cells (SH/APPwt) with human wild-type p-APP excessively expressed therein were prepared at 8×10^5 cells/mL, and 150 μl portions thereof were inoculated into each well of a 96-well culture plate (Falcon). The cells were cultured for 2 hours at 37° C. in a 5% gaseous carbon dioxide incubator. Then, a solution which had been preliminarily prepared by adding and suspending the test compound (DMSO (dimethyl sulfoxide) solution) so as to be 2 μl/50 μl medium was added to the cell sap. Namely, the final DMSO concentration was 1%, and the amount of the cell culture was 200 μl. After the incubation was performed for 24 hours from the addition of the test compound, 100 μl of the culture supernatant was collected from each fraction. The amount of the Aβ in each fraction was measured.
The Aβ amount was measured as follows. 10 μl of a homogeneous time resolved fluorescence (HTRF) measurement reagent (Amyloid β 1-40 peptide; IBA Molecular Holding, S. A.) and 10 μl of the culture supernatant were put into a 384-well half area microplate (black microplate, Costar) and mixed with each other, and then left standing overnight at 4° C. while the light was shielded. Then, the fluorescence intensity (excitation wavelength: 337 nm, measurement wavelength: 620 nm and 665 nm) was measured with a Wallac 1420 multilabel counter (Perkin Elmer life sciences). The Aβ amount was determined from the count rate at each measurement wavelength (10000× Count 665/Count 620), and the amount needed to inhibit Aβ production by 50% (IC50) was calculated from at least six different dosages.
Background: TR-FRET usually uses a lanthanide donor and a delayed reading to cut background.

The target in data set [2] is T2, CYP3A4 (Homo sapiens, UniProt P08684). Description: CYP3A4 fluorescent MBI test. Format: in vitro ADME. Also noted: host or cells: Escherichia coli. The settings on record: CYP3A4 expressed in Escherichia coli, substrate 7-BFC, pre-reaction 0 or 30 minutes. The procedure: The CYP3A4 fluorescent MBI test is a test of investigating enhancement of CYP3A4 inhibition of a compound by a metabolism reaction, and the test was performed using, as CYP3A4 enzyme expressed in Escherichia coli and employing, as an index, a reaction in which 7-benzyloxytrifluoromethylchmarin (7-BFC) is debenzylated by the CYP3A4 enzyme to produce a metabolite, 7-hydroxytrifluoromethylchmarin (HFC) emitting fluorescent light.
The reaction conditions were as follows: substrate, 5.6 μmol/L 7-BFC; pre-reaction time, 0 or 30 minutes; reaction time, 15 minutes; reaction temperature, 25° C. […]
An enzyme in a K-Pi buffer (pH 7.4) and a test drug solution as a pre-reaction solution were added to a 96-well plate at the composition of the pre-reaction, a part of it was transferred to another 96-well plate so that it was 1/10 diluted by a substrate in a K-Pi buffer, NADPH as a co-factor was added to initiate a reaction as an index (without preincubation) and, after a predetermined time of a reaction, acetonitrile/0.5 mol/L Tris(trishydroxyaminomethane)=4/1 was added to stop the reaction. […] For the plate on which each index reaction had been performed, a fluorescent value of 7-HFC which is a metabolite was measured with a fluorescent plate reader. […]

The target in another data set is T3, CYP1A2 (Homo sapiens, UniProt P05177).
T3 construct: enzyme, pooled human hepatic microsome 0.2 mg protein/mL; from tissue; host or cells: pooled human hepatic microsome
T3 sequence (P05177 1-516): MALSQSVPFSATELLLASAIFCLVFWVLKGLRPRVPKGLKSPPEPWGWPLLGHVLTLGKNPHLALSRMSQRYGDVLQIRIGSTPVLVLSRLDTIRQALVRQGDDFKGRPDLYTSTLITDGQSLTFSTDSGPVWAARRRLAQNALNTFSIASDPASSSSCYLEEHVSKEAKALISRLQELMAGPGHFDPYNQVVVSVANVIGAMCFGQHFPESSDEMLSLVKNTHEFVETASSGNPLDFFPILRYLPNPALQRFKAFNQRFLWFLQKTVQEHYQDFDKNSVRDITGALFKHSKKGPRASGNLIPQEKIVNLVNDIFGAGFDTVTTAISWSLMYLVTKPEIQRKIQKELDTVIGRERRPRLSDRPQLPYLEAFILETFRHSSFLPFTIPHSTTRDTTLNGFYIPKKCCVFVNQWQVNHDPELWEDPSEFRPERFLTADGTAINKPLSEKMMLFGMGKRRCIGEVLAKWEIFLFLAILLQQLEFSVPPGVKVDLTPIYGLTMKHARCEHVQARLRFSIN
Description: CYP inhibition test (7-ethoxyresorufin O-deethylation). Type of data set: in vitro ADME. The note with it: pooled human hepatic microsome, test drug concentration 1, 5, 10, 20 μmol/L. The method, then: (§1) Using commercially available pooled human hepatic microsome, and employing, as markers, 7-ethoxyresorufin O-deethylation (CYP1A2), tolbutamide methyl-hydroxylation (CYP2C9), mephenyloin 4′-hydroxylation (CYP2C19), dextromethorphan O-demethylation (CYP2D6), and terfenadine hydroxylation (CYP3A4) as typical substrate metabolism reactions of human main five CYP enzyme forms (CYP1A2, 2C9, 2C19, 2D6, 3A4), an inhibitory degree of each metabolite production amount by a test compound was assessed. […] After the centrifugation at 3000 rpm for 15 minutes, resorufin (CYP1A2 metabolite) in the supernatant was quantified by a fluorescent multilabel counter and tolbutamide hydroxide (CYP2C9 metabolite), mephenyloin 4′ hydroxide (CYP2C19 metabolite), dextrorphan (CYP2D6 metabolite), and terfenadine alcohol (CYP3A4 metabolite) were quantified by LC/MS/MS. Addition of only DMSO being a solvent dissolving a drug to a reaction system was adopted as a control (100%), remaining activity (%) was calculated at each concentration of a test drug added as the solution and IC50 was calculated by reverse presumption by a logistic model using a concentration and an inhibition rate.

The target of the next data set is T4, CYP2C9 (Homo sapiens, UniProt P11712).
T4 construct: enzyme, pooled human hepatic microsome 0.2 mg protein/mL; from tissue; host or cells: pooled human hepatic microsome
Description: CYP inhibition test (tolbutamide methyl-hydroxylation). The settings on record: pooled human hepatic microsome, test drug concentration 1, 5, 10, 20 μmol/L. Type of data set: in vitro ADME. The procedure:
as §1

The target of another data set is T5, CYP2C19 (Homo sapiens, UniProt P33261).
T5 construct: enzyme, pooled human hepatic microsome 0.2 mg protein/mL; from tissue; host or cells: pooled human hepatic microsome
Description: CYP inhibition test (mephenytoin 4'-hydroxylation). Format: in vitro ADME. The settings on record: pooled human hepatic microsome, test drug concentration 1, 5, 10, 20 μmol/L. The method, then: as §1

A further data set concerns the target T6, CYP2D6 (Homo sapiens, UniProt P10635).
T6 construct: enzyme, pooled human hepatic microsome 0.2 mg protein/mL; from tissue; host or cells: pooled human hepatic microsome
Description: CYP inhibition test (dextromethorphan O-demethylation). Type of data set: in vitro ADME. The note with it: pooled human hepatic microsome, test drug concentration 1, 5, 10, 20 μmol/L. The method, then:
as §1

The target in data set [3] is T2, CYP3A4. Description: CYP inhibition test (terfenadine hydroxylation). Type of data set: in vitro ADME. Also noted: enzyme, pooled human hepatic microsome 0.2 mg protein/mL; from tissue; host or cells: pooled human hepatic microsome. The settings on record: pooled human hepatic microsome, test drug concentration 1, 5, 10, 20 μmol/L. The method, then:
as §1

T1 sequence (P56817 46-501): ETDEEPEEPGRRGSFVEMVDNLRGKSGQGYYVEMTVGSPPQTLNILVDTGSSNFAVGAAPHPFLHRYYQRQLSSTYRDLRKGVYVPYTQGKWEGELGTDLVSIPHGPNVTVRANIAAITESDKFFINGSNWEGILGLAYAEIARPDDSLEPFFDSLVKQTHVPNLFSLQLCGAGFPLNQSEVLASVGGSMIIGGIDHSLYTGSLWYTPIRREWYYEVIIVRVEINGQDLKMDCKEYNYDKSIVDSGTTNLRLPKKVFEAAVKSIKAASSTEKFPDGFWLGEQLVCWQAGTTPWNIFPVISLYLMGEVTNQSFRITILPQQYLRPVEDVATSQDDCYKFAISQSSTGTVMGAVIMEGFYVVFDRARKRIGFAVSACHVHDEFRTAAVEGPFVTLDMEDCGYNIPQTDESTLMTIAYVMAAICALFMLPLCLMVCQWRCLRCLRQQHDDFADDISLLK
T2 sequence (P08684 whole entry): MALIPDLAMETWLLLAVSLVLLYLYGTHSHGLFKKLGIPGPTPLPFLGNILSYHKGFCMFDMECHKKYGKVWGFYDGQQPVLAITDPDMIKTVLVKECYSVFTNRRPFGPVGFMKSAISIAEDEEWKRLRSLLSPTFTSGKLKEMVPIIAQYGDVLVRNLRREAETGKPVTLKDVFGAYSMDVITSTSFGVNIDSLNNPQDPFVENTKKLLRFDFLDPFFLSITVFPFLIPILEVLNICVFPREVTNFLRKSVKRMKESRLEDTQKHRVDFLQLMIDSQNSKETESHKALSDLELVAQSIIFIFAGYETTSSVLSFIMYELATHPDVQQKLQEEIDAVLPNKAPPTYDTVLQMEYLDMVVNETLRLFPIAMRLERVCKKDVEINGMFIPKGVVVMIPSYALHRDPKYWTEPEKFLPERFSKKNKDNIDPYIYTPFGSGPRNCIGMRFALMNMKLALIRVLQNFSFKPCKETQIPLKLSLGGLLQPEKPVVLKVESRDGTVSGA
T5 sequence (P33261 whole entry): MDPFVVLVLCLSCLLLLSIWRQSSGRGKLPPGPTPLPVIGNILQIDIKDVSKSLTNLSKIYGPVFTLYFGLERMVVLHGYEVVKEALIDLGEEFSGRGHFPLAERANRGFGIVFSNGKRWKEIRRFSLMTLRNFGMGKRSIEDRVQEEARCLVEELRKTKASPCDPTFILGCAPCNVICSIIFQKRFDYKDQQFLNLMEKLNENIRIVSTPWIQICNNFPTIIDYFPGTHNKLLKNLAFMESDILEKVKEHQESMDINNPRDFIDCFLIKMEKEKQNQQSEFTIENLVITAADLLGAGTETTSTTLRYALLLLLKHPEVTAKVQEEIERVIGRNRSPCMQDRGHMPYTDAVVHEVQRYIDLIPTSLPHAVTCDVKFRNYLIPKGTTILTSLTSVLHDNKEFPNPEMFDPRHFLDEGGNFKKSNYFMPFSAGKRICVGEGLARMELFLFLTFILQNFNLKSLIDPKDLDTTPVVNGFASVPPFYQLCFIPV
T4 sequence (P11712 whole entry): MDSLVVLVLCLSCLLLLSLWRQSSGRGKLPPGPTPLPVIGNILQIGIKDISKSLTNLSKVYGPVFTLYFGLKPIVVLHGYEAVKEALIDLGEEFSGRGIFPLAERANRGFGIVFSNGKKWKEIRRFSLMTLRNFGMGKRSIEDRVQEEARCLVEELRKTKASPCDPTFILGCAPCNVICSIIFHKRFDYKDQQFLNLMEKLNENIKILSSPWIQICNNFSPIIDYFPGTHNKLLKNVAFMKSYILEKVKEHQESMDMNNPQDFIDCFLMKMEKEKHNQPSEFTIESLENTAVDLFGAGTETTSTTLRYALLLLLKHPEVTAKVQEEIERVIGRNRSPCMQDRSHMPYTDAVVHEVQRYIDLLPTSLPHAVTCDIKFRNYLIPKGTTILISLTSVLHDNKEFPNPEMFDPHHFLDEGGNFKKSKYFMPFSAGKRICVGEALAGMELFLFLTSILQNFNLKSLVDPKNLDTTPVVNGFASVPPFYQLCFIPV
T6 sequence (P10635 whole entry): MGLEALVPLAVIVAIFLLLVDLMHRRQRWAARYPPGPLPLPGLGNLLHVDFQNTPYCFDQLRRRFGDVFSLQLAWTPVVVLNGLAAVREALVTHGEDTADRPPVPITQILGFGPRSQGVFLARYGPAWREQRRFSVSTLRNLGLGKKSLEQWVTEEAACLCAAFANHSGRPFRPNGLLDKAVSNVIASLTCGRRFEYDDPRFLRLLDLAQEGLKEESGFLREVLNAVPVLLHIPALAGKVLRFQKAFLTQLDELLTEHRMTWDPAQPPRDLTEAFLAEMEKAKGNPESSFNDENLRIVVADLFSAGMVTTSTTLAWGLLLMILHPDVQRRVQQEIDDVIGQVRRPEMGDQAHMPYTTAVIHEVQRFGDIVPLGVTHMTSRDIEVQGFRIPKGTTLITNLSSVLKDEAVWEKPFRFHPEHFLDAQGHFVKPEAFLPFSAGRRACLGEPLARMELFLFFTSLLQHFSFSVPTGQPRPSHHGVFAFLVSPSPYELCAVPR

As for `C=C1SC(N)=NC2(c3cc(NC(=O)c4ccc(C#N)cn4)ccc3F)COCC12` (racemic) [Compound I-3], the pIC50 on Recombinant human BACE1 is 7.54; in data set [1] it was not below 6.00.

In the case of `COc1cnc(C(=O)Nc2ccc(F)c(C34COCC3COC(N)=N4)c2)cn1` (racemic) [Compound I-35], the pIC50 (at Recombinant human BACE1; in data set [1]) was not below 6.00 each time.

As for `NC1=NC2(c3cc(-c4cccnc4F)ccc3F)CCCC2CO1` (racemic) [Compound I-40], the pIC50 in data set [1] was not below 6.00.

In the case of `Cc1cnc(C(=O)Nc2ccc(F)c(C34COCC3COC(N)=N4)c2)cn1` (racemic) [Compound I-34], the pIC50 in data set [1] was not below 6.00.

As to `COc1cncc(-c2ccc(F)c(C34COCC3COC(N)=N4)c2)c1` (racemic) [Compound I-44], the pIC50 in data set [1] is not below 6.00. Also, the “CYP3A4 MBI: difference of IC50 value with and without preincubation” value at CYP3A4 [2] was “(−) (When the difference was 3 μM or less, the result was defined as (−))”.

Take `CC#CCOc1cnc(C(=O)Nc2ccc(F)c(C34COCC3COC(N)=N4)c2)cn1` (racemic) [Compound I-37]: the pIC50 in data set [1] is 9.00.

Take `NC1=NC2(c3cc(-c4cncc(Cl)c4)ccc3F)COCC2CO1` (racemic) [Compound I-45]: the pIC50 in data set [1] is not below 6.00.

Turning to `CNC(=O)c1ccc(-c2ccc(F)c(C34COCC3COC(N)=N4)c2)cn1` (racemic) [Compound I-43], the pIC50 in data set [1] is not below 6.00.

For the molecule `NC1=NC2(c3cc(NC(=O)c4ccc(OC(F)F)cn4)ccc3F)CCCC2CO1` (stereo not drawn) [Compound I-46], the pIC50 in data set [1] was not below 6.00.

Turning to `N#Cc1ccc(C(=O)Nc2ccc(F)c(C34CCCC3COC(N)=N4)c2)nc1` (racemic) [Compound I-38], the pIC50 (on Recombinant human BACE1; in data set [1]) was not below 6.00 each time.

Regarding `NC1=NC2(c3cc(NC(=O)c4ccc(Cl)cn4)ccc3F)COCC2CO1` (racemic) [Compound I-36], the pIC50 (on Recombinant human BACE1; in data set [1]) was not below 6.00 each time.

As for `N#Cc1ccc(C(=O)Nc2ccc(F)c(C34COCC3COC(N)=N4)c2)nc1` (racemic) [Compound I-33], the pIC50 on Recombinant human BACE1 is not below 6.00; in data set [1] it was not below 6.00; at CYP1A2, less than 4.70; against CYP2C9 it was less than 4.70; against CYP2C19, less than 4.70; on CYP2D6 it was less than 4.70. The pIC50 at CYP3A4 [3] was less than 4.70.

As to `COc1cncc(-c2ccc(F)c(C34CCCC3COC(N)=N4)c2)c1` (racemic) [Compound I-41], the pIC50 in data set [1] was not below 6.00.
